# Results taken from patent US5759836A, “Osteoarthritis-associated inducable isoform of nitric oxide synthetase” (priority 1995, dated 1998).
# Entries after “also recorded” stand apart in the source; their conditions may differ. Read-outs that look alike come from different tables or passages of the source.
# Tests used:
# iNOS [1] = assay: Nitrite accumulation in LPS-stimulated RAW 264.7 murine macrophages (Griess method); format: cell-based; settings: for inhibition at 5 µM: RAW264.7, read-out: Nitrite released, % inhibition, 5 μM (Table 2: 5 μm)
# Description: Effects of NSAIDs on Nitrite Accumulation. […] The expression and activity of iNOS were monitored by estimation of the stable end-product: nitrites.
# concentrations of NSAIDs for 2 h followed by addition of 100 ng/ml of LPS
# After 16-18 h of incubation, the medium was used to estimate the
# accumulation of nitrite by the Greiss method (Green et al., Anal Biochem.
# (§1) The specific activity of iNOS was determined in cellfre
# (§2) extracts at a given time period as described. The nitrite and specific
# activity data are representative of mean ± SD value, as determined by
# student t test, for 10 and 4 independent experiments, respectively. The p
# values described are compared with LPSstimulated cells. […]
# iNOS [2] = assay: Specific activity of iNOS in cell-free extracts of RAW 264.7 cells exposed to drug during LPS induction; format: cell-based, murine
# Description: Assays for iNOS in Cell-Free Extracts. […] The reaction mixture for iNOS assay (in cell-free extracts) consists of Tris […] (pH 7.8); BSA 1 mg/ml; DTT 1 mM; CaCl2, 2 mM; FAD 10 μM; BH4 10 μM; L-arginine 30 μM; NADPH 1 mM. The assay mixture for cNOS consists of Tris 50 mM (pH 7.8); L-arginine 50 μM; calmodulin 10 μg/ml; BH4 10 μM; CaCl2 2 mM; NADPH 100 μM. RAW 264.7 cells were induced with LPS in the presence and absence of NSAIDs for 16-18 h. […] Cells were re-pelleted at 4° C. and resuspended in Tris buffer (10 mM, pH 7.4) containing 1 mg/ml each chymostatin, antipain, leupeptin and pepstatin, 1 mM DTT and 1 mM PMSF. Cells were lysed in a Polytron PT 1200 homogenizer (Kinematica AG, Switzerland) after 3 cycles of rapid freeze-thawing. The lysate was centrifuged at 16,000 rpm for 60 min at 4° C., and the supernatants were used as cell-free extracts. […] After 20 min the assays were terminated by heating the reaction mixture at 90° C. for 5 min. The precipitates were removed by centrifuging at 15,000 rpm for 20 min. Ten microliters (≈50,000 cpm) of the supernatant was spotted on activated Avicel TLC plates (Analtech, Newark, Del.). The TLC plates were developed in a solvent system consisting of ethanol:water:ammonia (80:16:4). Quantitation of the spot for L-[^3 3H]-citrulline was performed by a Bioscan System 200 Imaging Scanner. A phosphoimager can also be used for such quantification.
# as §1, §2
# iNOS [3] = assay: In vitro iNOS catalytic activity in cell-free extracts preincubated with drug (L-[3H]-arginine to L-[3H]-citrulline); format: biochemical, murine; settings: for inhibition of iNOS catalytic activity in cell-free extracts (specific activity in in vitro assay): 1 mM
# iNOS [4] = assay: iNOS protein expression, Western blot, LPS-treated RAW 264.7 cells; format: cell-based, murine
# Description: Western Blot Analysis. Equal amounts of protein (50 μg) estimated by BCA reagent (Pierce, Rockford, Ill.) were loaded onto SDS-PAGE gels and stained to verify the concentrations of various protein fractions by examining the intensities of the protein bands on the gels. Western blot analysis was carried out from the same cell extracts. The Western-blotted membrane was probed with a specific anti-iNOS monoclonal antibody, as specified by Transduction Laboratories (Lexington, Ky.). The blots were developed using the ECL Western blot system (Amersham, Arlington Heights, Ill.). Quantitation of the bands was performed using a densitometer from Molecular Dynamics (Sunnyville, Calif.).
# The protein expression data are represented as
# ND = not done. NS = not significant.
# A Western blot analysis of iNOS protein was carried out in cells treated with […] LPS in the presence and absence of NSAIDs for 16-18 h.
# iNOS [5] = assay: iNOS expression in stimulated rat chondrosarcomas; format: cell-based; settings: for inhibition of iNOS expression in rat chondrosarcomas: 72 h, added 1 h prior to cytokines; for effect on iNOS in rat chondrosarcomas: LPS/cytokine-stimulated, L-NMMA 500 μM, indomethacin 20 μM
# Description: NSAIDs were tested in: (FIG. 5A) rat chondrosarcomas stimulated with LPS, and (FIG. 5B) unstimulated OA cartilage (n=3).
# OA-NOS [6] = assay: Nitrite release by OA-affected articular cartilage, ex vivo organ culture; format: cell-based, human
# neutrophil = settings: data not shown; read-out: ability to inhibit fMet-Leu-Phe-induced neutrophil aggregation (IC50); cited from earlier work
# NF-κB = settings: cited from earlier work
# COX = settings: cited from earlier work
# OA-NOS [7] = assay: Sensitivity of OA-NOS to agents (Table 3 comparison)
# human iNOS = settings: crude lysates; cited from earlier work
# iNOS [8] = settings: cited from earlier work
# [9] = systemic, rodent; cited from earlier work
# human chondrocyte iNOS = settings: cited from earlier work
# NOS = settings: cited from earlier work
# [10] = cited from earlier work; for NO biosynthesis, paw swelling and histopathological changes in ankle joints: rat adjuvant arthritis
# rabbit chondrocytes = settings: cited from earlier work
# [11] = Mus musculus, LPS 100 ng/ml, 16-18 h
compound,measurement,setting,value
"O=C([O-])c1ccccc1O.[Na+] [Sodium salicylate, sodium salicylate]","Nitrite released, Nitrite","iNOS [1]; 3 mM, LPS 100 ng/ml, 16-18 h",27.1 ± 8.8 µM
same,IC50,"iNOS [1]; Mus musculus, RAW264.7, read-out: IC50 with respect to nitrite accumulation",20 mM
same,inhibition at 3000 µM,"iNOS [1]; Mus musculus, RAW264.7, read-out: Nitrite released, % inhibition, 3 mM, LPS 100 ng/ml, 16-18 h",~7%
same,inhibition at 20000 µM,"iNOS [1]; Mus musculus, RAW264.7, read-out: inhibition of accumulation of nitrites, 20 mM, suprapharmacological",50%
same,inhibition at 5000 µM,"iNOS [1]; Mus musculus, RAW264.7, read-out: inhibition of nitrite accumulation, 5 mM, suprapharmacological",15 ± 1%
same,Specific activity of iNOS,iNOS [2]; 3 mM,304.0 ± 48.1 pmol/min/mg protein
same,inhibition at 3000 µM,"iNOS [2]; Mus musculus, RAW264.7, 16 h, read-out: Specific activity, % inhibition, 3 mM, cell-free extracts, 16 h",2%
same,effect on specific activity of iNOS,"iNOS [2]; NaSal 3 mM, indomethacin 5 μM (Table 1), therapeutic concentrations",did not inhibit
same,inhibition of iNOS catalytic activity in cell-free extracts (specific activity in in vitro assay),iNOS [3]; 20 min preincubation,~ 1%
same,effect on the catalytic activity of iNOS,"iNOS [3]; indomethacin 5 μM, sodium salicylate 1 mM",no significant differences; also recorded: no significant effect on the catalytic activity of iNOS
same,inhibition of iNOS expression,"iNOS [4]; 2-3 mM, variable in 4 independent experiments",0-35%
same,effect on iNOS expression at increased concentration,iNOS [4]; 5 and 20 mM,did not cause increased inhibition of iNOS expression
same,inhibition at 2000 µM,"iNOS [4]; Mus musculus, RAW264.7, read-out: inhibition of iNOS expression, 2 mM, Western blot, 16-18 h",~15%
same,inhibition at 3000 µM,"iNOS [4]; Mus musculus, RAW264.7, read-out: inhibition of iNOS protein expression, 3 mM, approximate, densitometry",~15%
same,inhibition of iNOS expression in rat chondrosarcomas,iNOS [5],~ 55%
same,effect on iNOS in rat chondrosarcomas,iNOS [5],significant inhibition of iNOS
same,effect on nitrite accumulation / NOS expression in OA cartilage,OA-NOS [6],blocked iNOS expression in OA cartilage
same,rank order of inhibition of spontaneous nitrite accumulation,OA-NOS [6],aspirin>indomethacin>sodium salicylate
same,IC50,neutrophil,3 mM
same,activation of NF-κB,"NF-κB; 5-20 mM, suprapharmacological",interfere in the activation of NF-κB
same,NF-κB-dependent transcription,"NF-κB; aspirin 3 mM, sodium salicylate 5 mM, luciferase reporter",inhibit NF-κB-dependent transcription
same,"NF-κB activation, gel shift assays",NF-κB; same concentrations (aspirin 3 mM; sodium salicylate 5 mM),no significant effect on NF-κB activation
same,COX inhibition,COX,an ineffective inhibitor of COX
same,sensitivity of OA-NOS,OA-NOS [7],inhibited; also recorded: shows sensitivity
"O=C(O)CN(CCN(CC(=O)O)CC(=O)O)CC(=O)O [EDTA, ethylenediaminetetraacetic acid]",human iNOS activity,human iNOS,markedly reduces
"CC(=O)Nc1ccc(O)cc1 [Acetaminophen, acetaminophen]",block of nitrite production,"iNOS [1]; 60-120 μM, LPS-stimulated",1±1%
same,effect on iNOS in rat chondrosarcomas,iNOS [5],no significant effect on iNOS expression
TGF-β1: cytokine TGF-β1,iNOS expression in macrophages,iNOS [8],suppresses iNOS expression
same,arthritis morbidity / protection,[9],significant degree of protection
N=C(N)NN [aminoguanidine],effect on nitrite accumulation / NOS expression in OA cartilage,OA-NOS [6],inhibited
same,sensitivity of OA-NOS,OA-NOS [7],blocked; also recorded: shows sensitivity
"COc1ccc2c(c1)c(CC(=O)O)c(C)n2C(=O)c1ccc(Cl)cc1 [Indomethacin, indomethacin]",extent of inhibition of nitrite accumulation,iNOS [1],not appreciably greater than that seen with 5 μM
same,inhibition at 5 µM,iNOS [1]; [11],~7%
same,inhibition at 5 µM,"iNOS [2]; Mus musculus, RAW264.7, 16 h, read-out: Specific activity, % inhibition, 5 μM (Table 2: 5 μm), cell-free extracts, 16 h",2%
same,inhibition of iNOS specific activity in in vitro assay,"iNOS [3]; 5 μM, 20 min preincubation",0%
same,inhibition at 5 µM,"iNOS [4]; Mus musculus, RAW264.7, read-out: inhibition of iNOS protein expression, 5 μm (Table 2)",0%
same,rank order of inhibition of spontaneous nitrite accumulation,OA-NOS [6],aspirin>indomethacin>sodium salicylate
same,COX inhibition,COX,a potent inhibitor of COX
NC(=O)N1C(=O)/C(=C(\O)c2cccs2)c2cc(Cl)ccc21 [tenidap],inhibition of iNOS expression in rat chondrosarcomas,iNOS [5],~ 50%
same,effect on iNOS in rat chondrosarcomas,iNOS [5],significant inhibition of iNOS
CC(C)Cc1ccc(C(C)C(=O)O)cc1 (stereo not drawn) [ibuprofen],effect on iNOS in rat chondrosarcomas,iNOS [5],no significant effect on iNOS expression
"C[C@]12CCC(=O)C=C1CC[C@@H]1[C@@H]2[C@@H](O)C[C@@]2(C)[C@H]1CC[C@]2(O)C(=O)CO [Hydrocortisone, hydrocortisone]","Nitrite released, % inhibition","iNOS [1]; 5 μM (Table 2: 5 μm), LPS 100 ng/ml, 16-18 h, 5 µM",63.0%
same,inhibition at 5 µM,iNOS [1]; [11],> 60%
same,effect on iNOS in rat chondrosarcomas,iNOS [5],no significant effect on iNOS expression
same,sensitivity of human chondrocyte iNOS,human chondrocyte iNOS,lack of sensitivity
same,"NOS expression in murine macrophages, endothelial cells and smooth muscles",NOS,abolishes NOS expression
same,sensitivity of OA-NOS,OA-NOS [7],insensitive; also recorded: not sensitive
C[C@@H]1C[C@H]2[C@@H]3CCC4=CC(=O)C=C[C@]4(C)[C@@]3(F)[C@@H](O)C[C@]2(C)[C@@]1(O)C(=O)CO [dexamethasone],sensitivity of human chondrocyte iNOS,human chondrocyte iNOS,lack of sensitivity
same,"NOS expression in murine macrophages, endothelial cells and smooth muscles",NOS,abolishes NOS expression
C[C@@H]1C[C@@H]([C@H](O)CC2CC(=O)NC(=O)C2)C(=O)[C@@H](C)C1 [cycloheximide],inhibition at 3.5 µM,"OA-NOS [6]; Homo sapiens, 3.5 μM, 24 h, read-out: inhibition of nitrite accumulation",> 90%
same,inhibition at 17.5 µM,"OA-NOS [6]; Homo sapiens, 17.5 μM, 24 h, read-out: inhibition of nitrite accumulation",> 90%
same,block of nitrite accumulation,"OA-NOS [6]; cycloheximide 35 μM or PDTC 30 μM, 24 h, cytokine/endotoxin-induced and control cartilage",> 90%
same,sensitivity of OA-NOS,OA-NOS [7],blocked; also recorded: shows sensitivity
TGF-β,sensitivity of OA-NOS,OA-NOS [7],insensitive; also recorded: not sensitive
"CN=C(N)NCCC[C@H](N)C(=O)O [L-NMMA, N^G -monomethyl-L-arginine acetate]",inhibition of iNOS expression in rat chondrosarcomas,iNOS [5],~ 65%
same,effect on iNOS in rat chondrosarcomas,iNOS [5],significant inhibition of iNOS
same,effect on nitrite accumulation / NOS expression in OA cartilage,"OA-NOS [6]; unstimulated OA cartilage, L-NMMA 500 μM, indomethacin 5 μM",inhibited
same,paw swelling,[10]; partial inhibition of NOS,sufficient to reduce paw swelling
same,"NO biosynthesis, paw swelling and histopathological changes in ankle joints",[10],blocked (in a dose-dependent manner)
same,proteoglycan synthesis,rabbit chondrocytes,restored proteoglycan synthesis
same,sensitivity of OA-NOS,OA-NOS [7],blocked; also recorded: shows sensitivity
N=C(N)NCCC[C@H](N)C(=O)O [L-arginine],"NO biosynthesis, paw swelling and histopathological changes in ankle joints",[10],competitively reversed the effect of L-NMMA
CC(=O)n1ccnc1 [N-acetylimidazole],inhibition of iNOS catalytic activity in cell-free extracts (specific activity in in vitro assay),iNOS [3]; 20 min preincubation,~ 74%
same,inhibition of iNOS catalytic activity in cell-free extracts (specific activity in in vitro assay),"iNOS [3]; 20 min preincubation, listed as NAI",74%
same,cyclooxygenase and peroxidase activity of COX,COX,inhibits both the cyclooxygenase and the peroxidase activity of COX
TNF-α,arthritis morbidity / protection,[9],increase arthritis morbidity
